The values that follow come from patent US8536209B2, “Aminotriazole derivatives as ALX agonists” (Actelion Pharmaceuticals Ltd., priority 2007, dated 2013).

The target of this experiment is T1, recombinant human ALX receptor (Homo sapiens, UniProt P25090).
T1 construct: expressed in transfected cells; host or cells: HEK293 (HEK293-hALXR-Gα16)
T1 sequence (P25090 1-351): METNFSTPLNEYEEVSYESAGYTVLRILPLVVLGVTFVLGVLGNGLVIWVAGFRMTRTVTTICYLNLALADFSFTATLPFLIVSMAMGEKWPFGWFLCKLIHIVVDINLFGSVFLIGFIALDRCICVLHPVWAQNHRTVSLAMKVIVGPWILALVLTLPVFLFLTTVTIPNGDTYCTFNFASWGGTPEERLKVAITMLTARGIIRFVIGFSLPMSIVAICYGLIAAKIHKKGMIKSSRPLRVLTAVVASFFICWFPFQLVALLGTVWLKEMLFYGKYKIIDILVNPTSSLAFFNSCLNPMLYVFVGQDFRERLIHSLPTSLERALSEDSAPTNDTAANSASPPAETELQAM
The experiment is described as follows: Intracellular calcium measurements (FLIPR), ALX receptor agonistic activity. In kind it is cell-based. The following applies: HEK293-hALXR-Gα16 cells, normalized to WKYMVm 10 nM. Here is the method:
The ALX receptor agonistic activity of the compounds of formula (I) is determined in accordance with the following experimental method.
Intracellular Calcium Measurements:
Cells expressing recombinant human ALX receptor and the G-protein Gα16 (HEK293-hALXR-Gα16) were grown to 80% confluency in Growing Medium (GM). Cells were detached from culture dishes with a cell dissociation buffer (Invitrogen, 13151-014), and collected by centrifugation at 1,000 rpm at RT for 5 min in Assay Buffer (AB) (equal parts of Hank's BSS (Gibco, 14065-049) and DMEM without Phemol Red (Gibco, 11880-028)). After 60 min incubation at 37° C. under 5% CO2 in AB supplemented with 1 μM Fluo-4 (AM) (TEFLABS.COM, 0152), 0.04% (v/v) Pluronic F-127 (Molecular Probes, P6866), and 20 mM HEPES (Gibco, 15630-056), the cells were washed and resuspended in AB. They were then seeded onto 384-well FLIPR assay plates (Greiner, 781091) at 50′000 cells in 70 μl per well and sedimented by centrifugation at 1′000 rpm for 1 min. Stock solutions of test compounds were made up at a concentration of 10 mM in DMSO, and serially diluted in AB to concentrations required for activation dose response curves. WKYMVm (Phoenix Peptides) was used as a reference agonist. A FLIPR^384 instrument (Molecular Devices) was operated according to the manufacturer's standard instructions, adding 4 μl of test compound dissolved at 10 mM in DMSO and diluted prior to the experiment in assay buffer to obtain the desired final concentration. Changes in fluorescence were monitored before and after the addition of test compounds at lex=488 nm and lem=540 nm. Emission peak values above base level after compounds addition were exported after base line subtraction. Values were normalized to high-level control (WKYMVm compound, 10 nM final concentration) after subtraction of the base line value (AB addition). The program XLlfit 3.0 (IDBS) was used to fit the data to a single site dose response curve of the equation (A+((B−A)/(1+((C/x)^D)))) and to calculate the EC50 values.
Turning to `CC(=O)CCCCn1ncc(NC(=O)c2ncoc2-c2ccccc2)n1` [Example 5, 5-Phenyl-oxazole-4-carboxylic acid [2-(5-oxo-hexyl)-2H-[1,2,3]triazol-4-yl]-amide], the EC50 came to 1.6 nM.
With `CC(=O)c1nc(Cn2ncc(NC(=O)OCc3ccccc3Cl)n2)co1` [Example 104, [2-(2-Acetyl-oxazol-4-ylmethyl)-2H-[1,2,3]triazol-4-yl]-carbamic acid 2-chloro-benzyl ester] the figure was 1.4 nM; with `CC(=O)c1cccc(Cn2ncc(NC(=O)c3ncoc3-c3ccccc3)n2)n1` [Example 43, 5-Phenyl-oxazole-4-carboxylic acid [2-(6-acetyl-pyridin-2-ylmethyl)-2H-[1,2,3]triazol-4-yl]-amide], 203 nM.
In the case of `CC(=O)c1ccc(Cn2ncc(NC(=O)c3ncoc3-c3ccccc3)n2)s1` [Example 33, 5-Phenyl-oxazole-4-carboxylic acid [2-(5-acetyl-thiophen-2-ylmethyl)-2H-[1,2,3]triazol-4-yl]-amide], the EC50 was determined as 2.8 nM.
With `COCCc1cccc(-c2ocnc2C(=O)Nc2cnn(Cc3ccc(C(C)=O)o3)n2)c1` [Example 42, 5-[3-(2-Methoxy-ethyl)-phenyl]-oxazole-4-carboxylic acid [2-(5-acetyl-furan-2-ylmethyl)-2H-[1,2,3]triazol-4-yl]-amide], the EC50 was found to be 2.1 nM.
The same measure for `CC(=O)c1cnc(Cn2ncc(NC(=O)OCc3ccccc3Cl)n2)s1` [Example 71, [2-(5-Acetyl-thiazol-2-ylmethyl)-2H-[1,2,3]triazol-4-yl]-carbamic acid 2-chloro-benzyl ester]: 23 nM.
In the case of `CC(F)(F)CCCCn1ncc(NC(=O)c2ncoc2-c2ccccc2)n1` [Example 36, 5-Phenyl-oxazole-4-carboxylic acid [2-(5,5-difluoro-hexyl)-2H-[1,2,3]triazol-4-yl]-amide], the EC50 amounted to 4.9 nM.
In the case of `CC(=O)c1ccc(Cn2ncc(NC(=O)c3nc(C)oc3-c3cccc(C(F)(F)F)c3)n2)o1` [Example 26, 2-Methyl-5-(3-trifluoromethyl-phenyl)-oxazole-4-carboxylic acid [2-(5-acetyl-furan-2-ylmethyl)-2H-[1,2,3]triazol-4-yl]-amide], the EC50 was 2 nM.
For the molecule `COCCc1nc(C(=O)Nc2cnn(Cc3ccc(C(C)=O)o3)n2)c(-c2ccccc2)o1` [Example 93, 2-(2-Methoxy-ethyl)-5-phenyl-oxazole-4-carboxylic acid [2-(5-acetyl-furan-2-ylmethyl)-2H-[1,2,3]triazol-4-yl]-amide], the EC50 is 5.2 nM.
The same measure for `CC(=O)c1ccc(Cn2ncc(NC(=O)/C=C/c3cccc(OC(F)(F)F)c3)n2)o1` [Example 8, (E)-N-[2-(5-Acetyl-furan-2-ylmethyl)-2H-[1,2,3]triazol-4-yl]-3-(3-trifluoromethoxy-phenyl)-acrylamide]: 1.2 nM; for `CC(=O)c1cccc(Cn2ncc(NC(=O)OCc3ccccc3Cl)n2)c1` [Example 35, [2-(3-Acetyl-benzyl)-2H-[1,2,3]triazol-4-yl]-carbamic acid 2-chloro-benzyl ester]: 8.5 nM; for `CC(=O)c1csc(Cn2ncc(NC(=O)OCc3ccccc3Cl)n2)n1` [Example 40, [2-(4-Acetyl-thiazol-2-ylmethyl)-2H-[1,2,3]triazol-4-yl]-carbamic acid 2-chloro-benzyl ester]: 1.3 nM.
With `CC(=O)c1ncc(Cn2ncc(NC(=O)c3nc(C)oc3-c3cccc(F)c3)n2)o1` [Example 99, 5-(3-Fluoro-phenyl)-2-methyl-oxazole-4-carboxylic acid [2-(2-acetyl-oxazol-5-ylmethyl)-2H-[1,2,3]triazol-4-yl]-amide] the figure was 8.1 nM; with `CC(=O)c1ccc(Cn2ncc(NC(=O)c3ncoc3-c3cccc(C(F)(F)F)n3)n2)o1` [Example 105, 5-(6-Trifluoromethyl-pyridin-2-yl)-oxazole-4-carboxylic acid [2-(5-acetyl-furan-2-ylmethyl)-2H-[1,2,3]triazol-4-yl]-amide], 36 nM.
With `CS(=O)(=O)c1ccc(Cn2ncc(NC(=O)c3ncoc3-c3ccccc3)n2)o1` [Example 37, 5-Phenyl-oxazole-4-carboxylic acid [2-(5-methanesulfonyl-furan-2-ylmethyl)-2H-[1,2,3]triazol-4-yl]-amide] the figure was 24 nM.
Take `CC(=O)c1ccc(Cn2ncc(NC(=O)c3ncoc3-c3cccc(N(C)C)c3)n2)o1` [Example 38, 5-(3-Dimethylamino-phenyl)-oxazole-4-carboxylic acid [2-(5-acetyl-furan-2-ylmethyl)-2H-[1,2,3]triazol-4-yl]-amide]: the EC50 came to 1.9 nM.
With `CC(=O)c1ccc(Cn2ncc(NC(=O)c3nc(C)sc3-c3cccc(C)c3)n2)o1` [Example 50, 2-Methyl-5-m-tolyl-thiazole-4-carboxylic acid [2-(5-acetyl-furan-2-ylmethyl)-2H-[1,2,3]triazol-4-yl]-amide] the figure was 98 nM; with `CC(=O)c1ccc(Cn2ncc(NC(=O)c3ncoc3-c3ccccc3)n2)o1` [Example 1, 5-Phenyl-oxazole-4-carboxylic acid [2-(5-acetyl-furan-2-ylmethyl)-2H-[1,2,3]triazol-4-yl]-amide], 1.8 nM.
With `CC(=O)c1ccc(Cn2ncc(NC(=O)c3nc(C4CC4)oc3-c3ccccc3)n2)o1` [Example 30, 2-Cyclopropyl-5-phenyl-oxazole-4-carboxylic acid [2-(5-acetyl-furan-2-ylmethyl)-2H-[1,2,3]triazol-4-yl]-amide] the figure was 0.8 nM; with `COc1cc(-c2ocnc2C(=O)Nc2cnn(Cc3ccc(C(C)=O)o3)n2)ccc1C` [Example 21, 5-(3-Methoxy-4-methyl-phenyl)-oxazole-4-carboxylic acid [2-(5-acetyl-furan-2-ylmethyl)-2H-[1,2,3]triazol-4-yl]-amide], 53 nM.
As to `CC(=O)c1coc(Cn2ncc(NC(=O)c3ncoc3-c3ccccc3)n2)n1` [Example 91, 5-Phenyl-oxazole-4-carboxylic acid [2-(4-acetyl-oxazol-2-ylmethyl)-2H-[1,2,3]triazol-4-yl]-amide], the EC50 amounted to 0.7 nM.
As to `CC(=O)c1cc(Cn2ncc(NC(=O)c3ncoc3-c3ccccc3)n2)cs1` [Example 49, 5-Phenyl-oxazole-4-carboxylic acid [2-(5-acetyl-thiophen-3-ylmethyl)-2H-[1,2,3]triazol-4-yl]-amide], the EC50 was determined as 57 nM.
The same measure for `CC(=O)c1ccnc(Cn2ncc(NC(=O)OCc3ccccc3Cl)n2)c1` [Example 41, [2-(4-Acetyl-pyridin-2-ylmethyl)-2H-[1,2,3]triazol-4-yl]-carbamic acid 2-chloro-benzyl ester]: 21 nM.
